Data on 35 compounds can be found in patent US20250382277A1, “SMALL MOLECULE INHIBITORS OF DYRK/CLK AND USES THEREOF” (Arizona Board of Regents on Behalf of the University of …, priority 2022, published 2025).

Structures are written as SMILES. Where a name gives a salt, the structure may show the parent alone.

Assay [1] concerns WNT signaling. Nature of the assay: WNT reporter assay (TopGFP reporter). It is filed as cell-based. The note with it: Human Colonic Epithelial Cells (HCEC) with TopGFP reporter, stimulated with 10 μM CHIR99021, 24 hours. The source says:
KDs were obtained from Eurofins.
Background: Reporter assays use an easily measured gene product as a stand-in for the process of interest.

Assay [2] concerns the target DYRK1A (Homo sapiens, UniProt Q13627). Description: biochemical.
Method: KDs were obtained from Eurofins. The KdELECT Kinase Assay Panel enables quantitated compound binding affinity against any kinase assay. Inhibitor binding constants (Kd values) are calculated from duplicate 11-point dose-response curves. Measurements are made under optimized conditions that generate true thermodynamic Kd values which facilitate direct comparison of inhibitor affinity across kinases.

By EC50 is commonly meant the concentration giving half of the maximal effect. Usually Kd stands for the concentration at which binding is half-saturated. Read a high Kd as weaker binding. In assay [1], `Nc1cc(-c2ccc3ncnc(-c4ccnc(N5CCOCC5)c4)c3c2)ccn1` [Compound 14, 4-(4-(2-morpholinopyridin-4-yl)quinazolin-6-yl)pyridin-2-amine] gave a 50% effective concentration (EC50) of more than 1000 nM. The compound also came in with a dissociation constant (Kd) in assay [2] of less than 100 nM.

In assay [1], `CC(=O)N1CC2(C1)CN(c1ccc(-c3ncnc4ccc(-c5ccnc(N)c5)cc34)cc1F)C2` [Compound 58, 1-(6-(4-(6-(2-aminopyridin-4-yl)quinazolin-4-yl)-2-fluorophenyl)-2,6-diazaspiro[3.3]heptan-2-yl)ethan-1-one] came in with a concentration for a half-maximal effect (EC50) of less than 100 nM.

In assay [1], `Nc1cc(-c2ccc3ncnc(-c4cnc(N5CCOCC5)c(F)c4)c3c2)ccn1` [Compound 11, 4-(4-(5-fluoro-6-morpholinopyridin-3-yl)quinazolin-6-yl)pyridin-2-amine] had a half-maximal effective concentration (EC50) of 100 to 1000 nM. In addition, the Kd in assay [2] was less than 100 nM.

In turn, `Nc1cc(-c2ccc3ncnc(-c4ccc(N5CC6(COC6)C5)c(F)c4)c3c2)ccn1` [Compound 28, 4-(4-(3-fluoro-4-(2-oxa-6-azaspiro[3.3]heptan-6-yl)phenyl)quinazolin-6-yl)pyridin-2-amine] showed a concentration giving a half-maximal response (EC50) in assay [1] of 100 to 1000 nM. Besides, the Kd in assay [2] is less than 100 nM.

In assay [1], `CN1CCN(c2ncc(-c3ncnc4ccc(-c5ccnc(N)c5)cc34)cc2F)CC1` [Compound 9, 4-(4-(5-fluoro-6-(4-methylpiperazin-1-yl)pyridin-3-yl)quinazolin-6-yl)pyridin-2-amine] came in with a concentration for a half-maximal effect (EC50) of 100 to 1000 nM. In assay [2], this compound registered a Kd of less than 100 nM.

Consider `Nc1cc(-c2ccc3ncnc(-c4ccc(N5CCN(CC6COC6)CC5)c(F)c4)c3c2)ccn1` [Compound 64, 4-(4-(3-fluoro-4-(4-(oxetan-3-ylmethyl)piperazin-1-yl)phenyl)quinazolin-6-yl)pyridin-2-amine], for which the EC50 in assay [1] was less than 100 nM.

In turn, `Nc1cc(-c2ccc3ncnc(-c4ccc(N5CCOCC5)cc4)c3c2)ccn1` [Compound 16, 4-(4-(4-morpholinophenyl)quinazolin-6-yl)pyridin-2-amine] returned a concentration giving a half-maximal response (EC50) in assay [1] of 100 to 1000 nM. The compound further displayed an equilibrium dissociation constant (Kd) in assay [2] of less than 100 nM.

For the compound `CN1CCN(c2ncc(-c3ncnc4ccc(-c5c[nH]c6ncccc56)cc34)cc2F)CC1` [Compound 26, 4-(5-fluoro-6-(4-methylpiperazin-1-yl)pyridin-3-yl)-6-(1H-pyrrolo[2,3-b]pyridin-3-yl)quinazoline], the concentration for a half-maximal effect (EC50) in assay [1] fell in the range of 100 to 1000 nM. In assay [2], this compound returned a dissociation constant (Kd) of less than 100 nM.

`CN[C@H]1CCN(c2ccc(-c3ncnc4ccc(-c5ccnc(N)c5)cc34)cc2F)C1` [Compound 60, (S)-4-(4-(3-fluoro-4-(3-(methylamino)pyrrolidin-1-yl)phenyl)quinazolin-6-yl)pyridin-2-amine] returned an EC50 in assay [1] of more than 1000 nM.

The compound `CC1(C)CN(c2ncc(-c3ncnc4ccc(-c5ccnc(N)c5)cc34)cc2F)CCO1` [Compound 20, 4-(4-(6-(2,2-dimethylmorpholino)-5-fluoropyridin-3-yl)quinazolin-6-yl)pyridin-2-amine] showed an EC50 in assay [1] of more than 1000 nM. The compound also yielded an equilibrium dissociation constant (Kd) in assay [2] of less than 100 nM.

In assay [1], `Nc1cc(-c2ccc3ncnc(-c4ccc(CN5CCOCC5)c(F)c4)c3c2)ccn1` [Compound 3, 4-(4-(3-fluoro-4-(morpholinomethyl)phenyl)quinazolin-6-yl)pyridin-2-amine] had a 50% effective concentration (EC50) of 100 to 1000 nM. Besides, the Kd in assay [2] was less than 100 nM.

The compound `Nc1cc(-c2ccc3ncnc(-c4ccc(CN5CCOCC5)cc4)c3c2)ccn1` [Compound 18, 4-(4-(4-(morpholinomethyl)phenyl)quinazolin-6-yl)pyridin-2-amine] showed a Kd in assay [2] of more than 1000 nM.

`Nc1cc(-c2ccc3ncnc(-c4cnc(N5CCC(N6CCOCC6)CC5)c(F)c4)c3c2)ccn1` [Compound 19, 4-(4-(5-fluoro-6-(4-morpholinopiperidin-1-yl)pyridin-3-yl)quinazolin-6-yl)pyridin-2-amine] came in with an EC50 in assay [1] of 100 to 1000 nM. Also, the Kd in assay [2] is less than 100 nM.

`Nc1cc(-c2ccc3ncnc(-c4ccc(N5C[C@@H]6C[C@H]5CO6)c(F)c4)c3c2)ccn1` [Compound 29, 4-(4-(4-((1S,4S)-2-oxa-5-azabicyclo[2.2.1]heptan-5-yl)-3-fluorophenyl)quinazolin-6-yl)pyridin-2-amine] returned an EC50 in assay [1] of 100 to 1000 nM. The compound also came in with a dissociation constant (Kd) in assay [2] of less than 100 nM.

As to `Nc1cc(-c2ccc3ncnc(-c4cnc(N5CCNCC5)c(F)c4)c3c2)ccn1` [Compound 24, 4-(4-(5-fluoro-6-(piperazin-1-yl)pyridin-3-yl)quinazolin-6-yl)pyridin-2-amine hydrochloride], the concentration giving a half-maximal response (EC50) in assay [1] is more than 1000 nM. In addition, in assay [2], the dissociation constant (Kd) is less than 100 nM.

For the compound `Nc1cc(-c2ccc3ncnc(-c4ccc(N5CCNCC5)c(F)c4)c3c2)ccn1` [Compound 35, 4-(4-(3-fluoro-4-(piperazin-1-yl)phenyl)quinazolin-6-yl)pyridin-2-amine], in assay [1], the EC50 fell in the range of 100 to 1000 nM. Besides, the Kd in assay [2] was less than 100 nM.

Compound `Cc1cc(-c2ncnc3ccc(-c4ccnc(N)c4)cc23)ccc1N1CCN(C)CC1` [Compound 61, 4-(4-(3-methyl-4-(4-methylpiperazin-1-yl)phenyl)quinazolin-6-yl)pyridin-2-amine] showed an EC50 in assay [1] of 100 to 1000 nM.

In turn, `Nc1cc(-c2ccc3ncnc(-c4ccc(N5CCN(C6CCOCC6)CC5)c(F)c4)c3c2)ccn1` [Compound 55, 4-(4-(3-fluoro-4-(4-(tetrahydro-2H-pyran-4-yl)piperazin-1-yl)phenyl)quinazolin-6-yl)pyridin-2-amine] displayed a 50% effective concentration (EC50) in assay [1] of less than 100 nM. The same compound returned a Kd in assay [2] of less than 100 nM.

`Nc1cc(-c2ccc3ncnc(-c4ccc(N5CCN(C6COC6)CC5)c(F)c4)c3c2)ccn1` [Compound 56, 4-(4-(3-fluoro-4-(4-(oxetan-3-yl)piperazin-1-yl)phenyl)quinazolin-6-yl)pyridin-2-amine] yielded an EC50 in assay [1] of less than 100 nM. In assay [2], this compound had a Kd of less than 100 nM.

The compound `CC(=O)N1CCN(c2ccc(-c3ncnc4ccc(-c5cn[nH]c5)cc34)cc2)CC1` [Compound 37, 1-(4-(4-(6-(1H-pyrazol-4-yl)quinazolin-4-yl)phenyl)piperazin-1-yl)ethan-1-one] gave an EC50 in assay [1] of less than 100 nM.

For the compound `COC(=O)N1CCN(c2ccc(-c3ncnc4ccc(-c5ccnc(N)c5)cc34)cc2F)CC1` [Compound 52, methyl 4-(4-(6-(2-aminopyridin-4-yl)quinazolin-4-yl)-2-fluorophenyl)piperazine-1-carboxylate], the 50% effective concentration (EC50) in assay [1] is less than 100 nM. Further, in assay [2], the dissociation constant (Kd) was less than 100 nM.

On to `Nc1nccc(-c2ccc3ncnc(-c4ccc(N5CCOCC5)c(F)c4)c3c2)n1` [Compound 15, 4-(4-(3-fluoro-4-morpholinophenyl)quinazolin-6-yl)pyrimidin-2-amine], for which the concentration for a half-maximal effect (EC50) in assay [1] is 100 to 1000 nM. In addition, in assay [2], the Kd was less than 100 nM.

For `Fc1cc(-c2ncnc3ccc(-c4c[nH]c5ncccc45)cc23)cnc1N1CCNCC1` [Compound 27, 4-(5-fluoro-6-(piperazin-1-yl)pyridin-3-yl)-6-(1H-pyrrolo[2,3-b]pyridin-3-yl)quinazoline], the EC50 in assay [1] fell in the range of 100 to 1000 nM. For the same compound, the Kd in assay [2] is less than 100 nM.

For the compound `Nc1cc(-c2ccc3ncnc(-c4cccc(CN5CCOCC5)c4)c3c2)ccn1` [Compound 8, 4-(4-(3-(morpholinomethyl)phenyl)quinazolin-6-yl)pyridin-2-amine], the concentration giving a half-maximal response (EC50) in assay [1] is more than 1000 nM. This compound also returned a Kd in assay [2] of less than 100 nM.

`[2H]C([2H])([2H])N1CCN(c2ccc(-c3ncnc4ccc(-c5ccnc(N)c5)cc34)cc2F)CC1` [Compound 51, 4-(4-(3-fluoro-4-(4-(methyl-d3)piperazin-1-yl)phenyl)quinazolin-6-yl)pyridin-2-amine] came in with a half-maximal effective concentration (EC50) in assay [1] of less than 100 nM. In assay [2], the Kd is less than 100 nM.

With `CN1[C@@H]2CC[C@H]1CN(c1ccc(-c3ncnc4ccc(-c5ccnc(N)c5)cc34)cc1F)C2` [Compound 43, 4-(4-(3-fluoro-4-((1R,5S)-8-methyl-3,8-diazabicyclo[3.2.1]octan-3-yl)phenyl)quinazolin-6-yl)pyridin-2-amine], the EC50 in assay [1] was 100 to 1000 nM. Also, the Kd in assay [2] was less than 100 nM.

In turn, `CS(=O)(=O)N1CCN(c2ccc(-c3ncnc4ccc(-c5ccnc(N)c5)cc34)cc2C(F)(F)F)CC1` [Compound 63, 4-(4-(4-(4-(methylsulfonyl)piperazin-1-yl)-3-(trifluoromethyl)phenyl)quinazolin-6-yl)pyridin-2-amine] came in with an EC50 in assay [1] of less than 100 nM.

In turn, `CN1CCN(c2ccc(-c3ncnc4ccc(-c5ccnc(N)c5)cc34)cc2)CC1` [Compound 7, 4-(4-(4-(4-methylpiperazin-1-yl)phenyl)quinazolin-6-yl)pyridin-2-amine] returned a dissociation constant (Kd) in assay [2] of less than 100 nM.

In turn, `Nc1cc(-c2ccc3ncnc(-c4cc(F)cc(N5CCOCC5)c4)c3c2)ccn1` [Compound 5, 4-(4-(3-fluoro-5-morpholinophenyl)quinazolin-6-yl)pyridin-2-amine] displayed a Kd in assay [2] of less than 100 nM.

In assay [1], `CS(=O)(=O)N1CCN(c2ccc(-c3ncnc4ccc(-c5ccnc(N)c5)cc34)cc2Cl)CC1` [Compound 59, 4-(4-(3-chloro-4-(4-(methylsulfonyl)piperazin-1-yl)phenyl)quinazolin-6-yl)pyridin-2-amine] returned an EC50 of less than 100 nM.

On to `Nc1cc(-c2ccc3ncnc(-c4ccc(N5CC6(C5)CN(C5COC5)C6)c(F)c4)c3c2)ccn1` [Compound 57, 4-(4-(3-fluoro-4-(6-(oxetan-3-yl)-2,6-diazaspiro[3.3]heptan-2-yl)phenyl)quinazolin-6-yl)pyridin-2-amine], for which, in assay [1], the EC50 lay within 100 to 1000 nM.

In the case of `Nc1cc(-c2ccc3nccc(-c4cnc(N5CCOCC5)c(F)c4)c3c2)ccn1` [Compound 13, 4-(4-(5-fluoro-6-morpholinopyridin-3-yl)quinolin-6-yl)pyridin-2-amine], in assay [1], the EC50 was 100 to 1000 nM.

`CN1CCN(c2ccc(-c3ncnc4ccc(-c5ccnc(N)c5)cc34)cc2Cl)CC1` [Compound 62, 4-(4-(3-chloro-4-(4-methylpiperazin-1-yl)phenyl)quinazolin-6-yl)pyridin-2-amine]: the EC50 in assay [1] is less than 100 nM.

Regarding `Nc1cc(-c2ccc3ncnc(-c4ccc(N5CCS(=O)(=O)CC5)cc4)c3c2)ccn1` [Compound 6, 4-(4-(6-(2-aminopyridin-4-yl)quinazolin-4-yl)phenyl)thiomorpholine 1,1-dioxide], the Kd in assay [2] was less than 100 nM.

`Nc1cc(-c2ccc3ncnc(-c4ccc(N5CCOCC5)nc4)c3c2)ccn1` [Compound 10, 4-(4-(6-morpholinopyridin-3-yl)quinazolin-6-yl)pyridin-2-amine] registered a dissociation constant (Kd) in assay [2] of less than 100 nM.
